Data as given in US20070021434A1, “NON-NUCLEOSIDE ANTI-HEPACIVIRUS AGENTS AND USES THEREOF” (Migenix Inc., priority 2005, published 2007).

These compounds were tested against HCV RdRp (NS5B) (UniProt P26663).
Assay type: biochemical, hepatitis C virus

HCV RdRp (NS5B), sequence (P26663 whole entry, looked up): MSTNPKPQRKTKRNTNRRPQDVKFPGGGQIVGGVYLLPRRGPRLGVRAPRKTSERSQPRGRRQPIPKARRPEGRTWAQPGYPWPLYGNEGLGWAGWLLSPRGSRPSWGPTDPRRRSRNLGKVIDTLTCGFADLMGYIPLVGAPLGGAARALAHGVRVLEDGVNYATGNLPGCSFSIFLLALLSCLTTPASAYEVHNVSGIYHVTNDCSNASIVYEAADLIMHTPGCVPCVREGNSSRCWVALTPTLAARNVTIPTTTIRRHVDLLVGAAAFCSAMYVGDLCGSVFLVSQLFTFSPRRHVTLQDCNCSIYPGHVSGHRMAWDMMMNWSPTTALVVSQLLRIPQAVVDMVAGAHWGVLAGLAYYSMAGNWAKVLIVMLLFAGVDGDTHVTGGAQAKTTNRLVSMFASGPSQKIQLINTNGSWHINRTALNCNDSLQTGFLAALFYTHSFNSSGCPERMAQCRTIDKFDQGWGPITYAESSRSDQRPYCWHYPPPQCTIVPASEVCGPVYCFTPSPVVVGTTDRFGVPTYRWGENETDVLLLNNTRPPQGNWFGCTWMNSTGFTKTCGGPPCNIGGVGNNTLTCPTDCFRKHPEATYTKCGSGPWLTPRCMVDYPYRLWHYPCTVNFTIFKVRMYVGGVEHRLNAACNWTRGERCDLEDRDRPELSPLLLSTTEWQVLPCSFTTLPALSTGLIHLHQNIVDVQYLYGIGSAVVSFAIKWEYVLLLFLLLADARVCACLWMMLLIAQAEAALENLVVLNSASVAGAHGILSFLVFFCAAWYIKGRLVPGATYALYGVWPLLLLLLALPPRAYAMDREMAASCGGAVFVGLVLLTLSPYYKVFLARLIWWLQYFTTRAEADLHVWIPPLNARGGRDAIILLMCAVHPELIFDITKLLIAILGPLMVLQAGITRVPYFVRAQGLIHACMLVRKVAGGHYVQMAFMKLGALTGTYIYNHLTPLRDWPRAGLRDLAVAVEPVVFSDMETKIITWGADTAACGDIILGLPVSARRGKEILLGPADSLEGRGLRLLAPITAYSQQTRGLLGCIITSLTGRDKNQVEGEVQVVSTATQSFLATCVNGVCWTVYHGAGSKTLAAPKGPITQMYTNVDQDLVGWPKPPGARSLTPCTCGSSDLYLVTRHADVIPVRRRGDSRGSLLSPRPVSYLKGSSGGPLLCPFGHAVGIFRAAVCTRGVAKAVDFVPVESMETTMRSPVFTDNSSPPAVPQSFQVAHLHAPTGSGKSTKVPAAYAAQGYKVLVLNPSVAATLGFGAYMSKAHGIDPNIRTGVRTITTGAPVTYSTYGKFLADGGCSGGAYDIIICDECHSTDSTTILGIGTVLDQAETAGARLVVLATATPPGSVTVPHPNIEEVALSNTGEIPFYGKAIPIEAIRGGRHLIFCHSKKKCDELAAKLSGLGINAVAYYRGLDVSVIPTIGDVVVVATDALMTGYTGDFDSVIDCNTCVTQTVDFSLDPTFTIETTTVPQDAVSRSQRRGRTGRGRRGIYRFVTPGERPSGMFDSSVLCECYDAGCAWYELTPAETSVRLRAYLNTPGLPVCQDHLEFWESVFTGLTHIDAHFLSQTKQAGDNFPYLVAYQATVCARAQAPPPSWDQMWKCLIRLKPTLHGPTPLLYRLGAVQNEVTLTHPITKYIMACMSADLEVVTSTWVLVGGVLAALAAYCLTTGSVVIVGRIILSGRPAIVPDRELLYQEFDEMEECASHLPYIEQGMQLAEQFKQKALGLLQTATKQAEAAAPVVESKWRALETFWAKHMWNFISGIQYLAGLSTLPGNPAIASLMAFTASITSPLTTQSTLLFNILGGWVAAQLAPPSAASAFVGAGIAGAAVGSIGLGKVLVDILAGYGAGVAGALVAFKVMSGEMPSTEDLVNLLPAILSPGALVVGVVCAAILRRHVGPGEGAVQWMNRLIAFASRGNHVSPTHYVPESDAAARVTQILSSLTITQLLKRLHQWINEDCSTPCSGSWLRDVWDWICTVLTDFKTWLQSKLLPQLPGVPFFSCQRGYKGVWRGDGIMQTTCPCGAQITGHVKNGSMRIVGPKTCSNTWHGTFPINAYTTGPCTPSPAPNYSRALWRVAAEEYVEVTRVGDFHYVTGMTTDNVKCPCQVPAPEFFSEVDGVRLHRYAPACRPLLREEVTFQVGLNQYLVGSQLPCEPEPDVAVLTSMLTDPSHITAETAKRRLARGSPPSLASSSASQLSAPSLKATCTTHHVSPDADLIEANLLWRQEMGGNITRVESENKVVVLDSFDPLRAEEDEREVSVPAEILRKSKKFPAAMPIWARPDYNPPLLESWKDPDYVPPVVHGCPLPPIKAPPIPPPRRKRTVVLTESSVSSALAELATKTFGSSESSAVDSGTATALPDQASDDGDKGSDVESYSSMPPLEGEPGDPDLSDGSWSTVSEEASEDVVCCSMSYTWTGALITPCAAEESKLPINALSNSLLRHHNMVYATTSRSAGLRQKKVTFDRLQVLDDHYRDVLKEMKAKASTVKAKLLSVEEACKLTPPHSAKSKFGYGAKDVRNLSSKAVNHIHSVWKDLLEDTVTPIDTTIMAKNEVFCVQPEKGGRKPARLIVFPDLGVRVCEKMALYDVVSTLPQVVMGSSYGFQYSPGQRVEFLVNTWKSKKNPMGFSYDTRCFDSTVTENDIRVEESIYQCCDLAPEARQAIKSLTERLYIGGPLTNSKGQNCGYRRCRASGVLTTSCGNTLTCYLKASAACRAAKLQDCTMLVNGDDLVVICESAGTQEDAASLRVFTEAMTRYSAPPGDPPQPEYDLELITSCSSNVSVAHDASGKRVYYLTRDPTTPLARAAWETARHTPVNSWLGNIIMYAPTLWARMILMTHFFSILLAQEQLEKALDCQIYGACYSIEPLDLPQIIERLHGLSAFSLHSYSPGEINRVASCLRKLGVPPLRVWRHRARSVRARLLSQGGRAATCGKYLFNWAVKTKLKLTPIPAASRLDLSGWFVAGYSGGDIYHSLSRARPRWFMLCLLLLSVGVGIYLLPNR

`Cc1ccc(NC(=O)C(CCCCN)NC(=O)C(N)Cc2c[nH]c3ccccc23)cc1` [Compound 100, (S,S)-6-AMINO-2-[2-AMINO-3-(1H-INDOL-3-YL)-PROPIONYLAMINO]-HEXANOIC ACID P-TOLYLAMIDE] and `Cc1ccc(NC(=O)C(CCCCN)NC(=O)NCCc2ccccc2)cc1` [Compound 134, (S)-6-AMINO-2-(3-PHENETHYL-UREIDO)-HEXANOIC ACID P-TOLYLAMIDE] cannot be ordered by IC50: greater than 50 µM for the first, greater than 50 µM for the second.

First: Cc1ccc(NC(=O)[C@H](CCCCN)NC(=O)OCC2c3ccccc3-c3ccccc32)cc1C [Compound 216, (S)-[5-AMINO-1-(3,4-DIMETHYL-PHENYLCARBAMOYL)-PENTYL]-CARBAMIC ACID 9H-FLUOREN-9-YLMETHYL ESTER]
Second: CC(=O)c1cccc(NC(=O)[C@H](CCCCN)NC(=O)OCC2c3ccccc3-c3ccccc32)c1 [Compound 219, (S)-[1-(3-ACETYL-PHENYLCARBAMOYL)-5-AMINO-PENTYL]-CARBAMIC ACID 9H-FLUOREN-9-YLMETHYL ESTER]
The IC50 of the first is lower: 10 to 50 µM for the first, greater than 50 µM for the second.

Compared with `Cc1ccc(NC(=O)C(CCCCN)NC(=O)Nc2ccc(CCc3ccccc3)cc2)cc1` [Compound 243, (S)-6-AMINO-2-[3-(4-PHENETHYL-PHENYL)-UREIDO]-HEXANOIC ACID P-TOLYLAMIDE], `Cc1ccc(NC(=O)C(CCCCN)NC(=O)Nc2ccc(-c3ccccc3)cc2)cc1` [Compound 40, (S)-6-AMINO-2-(3-BIPHENYL-4-YL-UREIDO)-HEXANOIC ACID P-TOLYLAMIDE] is lower in IC50: greater than 50 µM for the first, 10 to 50 µM for the second. The second is the more potent here.

`Cc1ccc(NC(=O)[C@H](CCCCN)NC(=O)Nc2cccc3c2CCCC3)cc1` [Compound 78, (S)-6-AMINO-2-[3-(5,6,7,8-TETRAHYDRO-NAPHTHALEN-1-YL)-UREIDO]-HEXANOIC ACID P-TOLYLAMIDE] and `Cc1ccc(NC(=O)[C@H](CCCCN)NC(=O)CNc2ccc3c(c2)CCC3)cc1` [Compound 369, (S)-6-AMINO-2-[2-(INDAN-5-YLAMINO)-ACETYLAMINO]-HEXANOIC ACID P-TOLYLAMIDE] cannot be ordered by IC50: greater than 50 µM for the first, greater than 50 µM for the second.

`Cc1ccc(NC(=O)[C@H](CCCCN)NC(=O)CNCc2ccccc2)cc1` [Compound 337, (S)-6-AMINO-2-(2-BENZYLAMINO-ACETYLAMINO)-HEXANOIC ACID P-TOLYLAMIDE] and `Cc1ccc(NC(=O)[C@@H](CCCCN)NC(=O)Nc2cccc(OCc3ccccc3)c2)cc1` [Compound 205, (R)-6-AMINO-2-[3-(3-BENZYLOXY-PHENYL)-UREIDO]-HEXANOIC ACID P-TOLYLAMIDE] cannot be ordered by IC50: greater than 50 µM for the first, greater than 50 µM for the second.

`NCCCC[C@H](NC(=O)Nc1ccc(OCc2ccccc2)cc1)C(=O)Nc1cccc2cc[nH]c12` [Compound 307, (S)-6-AMINO-2-[3-(4-BENZYLOXY-PHENYL)-UREIDO]-HEXANOIC ACID (1H-INDOL-7-YL)-AMIDE] and `Cc1ccc(NC(=O)[C@H](CCCCN)NC(=O)Nc2ccc(OCc3cccc(F)c3)cc2)cc1` [Compound 249, (S)-6-AMINO-2-{3-[4-(3-FLUORO-BENZYLOXY)-PHENYL]-UREIDO}-HEXANOIC ACID P-TOLYLAMIDE] fall in the same range of IC50: 10 to 50 µM for the first, 10 to 50 µM for the second.

Compared with `CNc1ccc(NC(=O)[C@H](CCCCN)NC(=O)OCC2c3ccccc3-c3ccccc32)cc1` [Compound 209, (S)-[5-AMINO-1-(4-METHYLAMINO-PHENYLCARBAMOYL)-PENTYL]-CARBAMIC ACID 9H-FLUOREN-9-YLMETHYL ESTER], `CC(=O)Nc1ccc(NC(=O)[C@H](CCCCN)NC(=O)OCC2c3ccccc3-c3ccccc32)cc1` [Compound 230, (S)-[1-(4-ACETYLAMINO-PHENYLCARBAMOYL)-5-AMINO-PENTYL]-CARBAMIC ACID 9H-FLUOREN-9-YLMETHYL ESTER] is higher in IC50: 10 to 50 µM for the first, greater than 50 µM for the second. The first is the more potent here.

Compared with `COc1ccc(NC(=O)[C@H](CCCCN)NC(=O)OCC2c3ccccc3-c3ccccc32)cc1` [Compound 83, (S)-[5-AMINO-1-(4-METHOXY-PHENYLCARBAMOYL)-PENTYL]-CARBAMIC ACID 9H-FLUOREN-9-YLMETHYL ESTER], `NCCCCC[C@H](NC(=O)OCC1c2ccccc2-c2ccccc21)C(=O)Nc1ccc(C2CCCCC2)cc1` [Compound 116, (S)-[6-AMINO-1-(4-CYCLOHEXYL-PHENYLCARBAMOYL)-HEXYL]-CARBAMIC ACID 9H-FLUOREN-9-YLMETHYL ESTER] is lower in IC50: 10 to 50 µM for the first, less than 10 µM for the second.

First: Cc1ccc(NC(=O)C(CCCCN)NC(=O)Nc2ccc(CN(C)c3ccc([N+](=O)[O-])cc3)cc2)cc1 [Compound 251, (S)-6-AMINO-2-[3-(4-{[METHYL-(4-NITRO-PHENYL)-AMINO]-METHYL}-PHENYL)-UREIDO]-HEXANOIC ACID P-TOLYLAMIDE]
Second: Cc1ccc(NC(=O)[C@H](CCCCN)NC(=O)Nc2ccc(OCc3ccc(F)cc3)cc2)cc1 [Compound 250, (S)-6-AMINO-2-{3-[4-(4-FLUORO-BENZYLOXY)-PHENYL]-UREIDO}-HEXANOIC ACID P-TOLYLAMIDE]
The IC50 of the first is lower: less than 10 µM for the first, 10 to 50 µM for the second. The first is the more potent here.

Going from `N[C@@H](Cc1c[nH]c2ccccc12)C(=O)NCCCC[C@H](NC(=O)OCC1c2ccccc2-c2ccccc21)C(=O)Nc1ccc(CN(C(=O)c2ccco2)C2CCCCC2)cc1` [Compound 35, (S)-[5-[2-(S)-AMINO-3-(1H-INDOL-3-YL)-PROPIONYLAMINO]-1-(4-{[CYCLOHEXYL-(FURAN-2-CARBONYL)-AMINO]-METHYL}-PHENYLCARBAMOYL)-PENTYL]-CARBAMIC ACID 9H-FLUOREN-9-YLMETHYL ESTER] to `CC(C)(C)OC(=O)NCCCC[C@H](NC(=O)OCC1c2ccccc2-c2ccccc21)C(=O)NCCc1c[nH]c2ccccc12` [Compound 56, (S)-{5-((9H-FLUOREN-9-YLMETHOXYCARBONYL)AMINO)-5-[2-(1H-INDOL-3-YL)-ETHYLCARBAMOYL]-PENTYL}-CARBAMIC ACID TERT-BUTYL ESTER], the IC50 rises from less than 10 µM to greater than 50 µM. The first is the more potent here.

`C[C@@H](N)C(=O)Nc1ccc(CN(C(=O)c2ccco2)C2CCCCC2)cc1` [Compound 13, (R)-FURAN-2-CARBOXYLIC ACID [4-(2-AMINO-PROPIONYLAMINO)-BENZYL]-CYCLOHEXYL-AMIDE] and `NCCCC[C@H](NC(=O)NCc1ccccc1)C(=O)Nc1ccc(CN(C(=O)c2ccco2)C2CCCCC2)cc1` [Compound 153, (S)-FURAN-2-CARBOXYLIC ACID {4-[6-AMINO-2-(3-BENZYL-UREIDO)-HEXANOYLAMINO]-BENZYL}-CYCLOHEXYL-AMIDE] cannot be ordered by IC50: greater than 50 µM for the first, greater than 50 µM for the second.

`Cc1ccc(NC(=O)C(CCCCN)NC(=O)Nc2ccc(OC(C)c3ccccc3)cc2)cc1` [Compound 277, (2S)-6-AMINO-2-{3-[4-(1-PHENYL-ETHOXY)-PHENYL]-UREIDO}-HEXANOIC ACID P-TOLYLAMIDE] and `Cc1ccc(NC(=O)C(CCCN)NC(=O)Nc2ccc(-c3ccccc3)cc2)cc1` [Compound 188, (S)-5-AMINO-2-(3-BIPHENYL-4-YL-UREIDO)-PENTANOIC ACID P-TOLYLAMIDE] cannot be ordered by IC50: greater than 50 µM for the first, greater than 50 µM for the second.

`Cc1ccc(NC(=O)[C@H](CCCCN)NC(=O)COc2ccc(I)cc2)cc1` [Compound 327, (S)-6-AMINO-2-[2-(4-IODO-PHENOXY)-ACETYLAMINO]-HEXANOIC ACID P-TOLYLAMIDE] and `Cc1ccc(CNC(=O)NC(CCCCN)C(=O)Nc2ccc(C)cc2)cc1` [Compound 136, (S)-6-AMINO-2-[3-(4-METHYL-BENZYL)-UREIDO]-HEXANOIC ACID P-TOLYLAMIDE] cannot be ordered by IC50: greater than 50 µM for the first, greater than 50 µM for the second.

First: Cc1ccc(NC(=O)C2CCCCN2C(=O)OCC2c3ccccc3-c3ccccc32)cc1 [Compound 122, (S)-2-P-TOLYLCARBAMOYL-PIPERIDINE-1-CARBOXYLIC ACID 9H-FLUOREN-9-YLMETHYL ESTER]
Second: Cc1ccc(NC(=O)CN(CCCCN)C(=O)OCC2c3ccccc3-c3ccccc32)cc1 [Compound 293, (4-AMINO-BUTYL)-(P-TOLYLCARBAMOYL-METHYL)-CARBAMIC ACID 9H-FLUOREN-9-YLMETHYL ESTER]
The IC50 of the first is higher: greater than 50 µM for the first, less than 10 µM for the second. The second is the more potent here.

Compared with `NCc1ccc(CNC(=O)[C@@H](NC(=O)OCC2c3ccccc3-c3ccccc32)c2ccccc2)cc1` [Compound 314, (S)-[(4-AMINOMETHYL-BENZYLCARBAMOYL)-PHENYL-METHYL]-CARBAMIC ACID 9H-FLUOREN-9-YLMETHYL ESTER], `COC(=O)C(Cc1c[nH]c2ccccc12)NC(=O)[C@H](CCCCN)NC(=O)OCC1c2ccccc2-c2ccccc21` (mixture of isomers) [Compound 55, (+/−)-2-[6-AMINO-2-(S)-((9H-FLUOREN-9-YLMETHOXYCARBONYL)AMINO)-HEXANOYL-AMINO]-3-(1H-INDOL-3-YL)-PROPIONIC ACID METHYL ESTER] is higher in IC50: 10 to 50 µM for the first, greater than 50 µM for the second.

First: Cc1ccc(NC(=O)C(CCCCN)NC(=O)Nc2cc(C(F)(F)F)cc(C(F)(F)F)c2)cc1 [Compound 95, (S)-6-AMINO-2-[3-(3,5-BIS-TRIFLUOROMETHYL-PHENYL)-UREIDO]-HEXANOIC ACID P-TOLYLAMIDE]
Second: CCOC(=O)c1ccc(NC(=O)NC(CCCCN)C(=O)Nc2ccc(C)cc2)cc1 [Compound 245, (S)-4-[3-(5-AMINO-1-P-TOLYLCARBAMOYL-PENTYL)-UREIDO]-BENZOIC ACID ETHYL ESTER]
The IC50 of the first is lower: 10 to 50 µM for the first, greater than 50 µM for the second.

`Cc1ccc(NC(=O)C(CCCCN)NS(=O)(=O)c2ccc(-c3ccccc3)cc2)cc1` [Compound 70, (S)-6-AMINO-2-(BIPHENYL-4-SULFONYLAMINO)-HEXANOIC ACID P-TOLYLAMIDE] and `Cc1ccc(NC(=O)[C@H](CCCCN)NS(=O)(=O)c2ccc(Cl)cc2)cc1` [Compound 391, (S)-6-AMINO-2-(4-CHLORO-BENZENESULFONYLAMINO)-HEXANOIC ACID P-TOLYLAMIDE] cannot be ordered by IC50: greater than 50 µM for the first, greater than 50 µM for the second.

`NCCCC[C@H](NC(=O)Nc1ccc(OCc2ccccc2)cc1)C(=O)NCC1CCCCC1` [Compound 265, (s)-6-AMINO-2-[3-(4-BENZYLOXY-PHENYL)-UREIDO]-HEXANOIC ACID CYCLOHEXYLMETHYL-AMIDE] and `NCCCCCCNC(=O)C(Cc1ccccc1)NC(=O)Nc1ccc(OCc2ccccc2)cc1` [Compound 263, (S)—NR-(6-AMINO-HEXYL)-2-13-(4-BENZYLOXY-PHENYL)-UREIDO]-3-PHENYL-PROPIONAMIDE] fall in the same range of IC50: 10 to 50 µM for the first, 10 to 50 µM for the second.

First: NCCCC[C@H](NC(=O)Nc1ccc2c(c1)Cc1ccccc1-2)C(=O)Nc1ccc(C2CCCCC2)cc1 [Compound 226, (S)-6-AMINO-2-[3-(9H-FLUOREN-2-YL)-UREIDO]-HEXANOIC ACID (4-CYCLOHEXYL-PHENYL)-AMIDE]
Second: O=C(CC1CNCCN1C(=O)Nc1ccc2c(c1)Cc1ccccc1-2)Nc1ccc(C2CCCCC2)cc1 (centres unmarked) [Compound 162, 2-[(4-CYCLOHEXYL-PHENYLCARBAMOYL)-METHYL]-PIPERAZINE-1-CARBOXYLIC ACID (9H-FLUOREN-2-YL)-AMIDE]
The IC50 of the first is higher: greater than 50 µM for the first, 10 to 50 µM for the second.
